Tested on: B16F10 tumor-bearing mice
Experiment: Luciferase expression tumor/whole body after intratumoral injection, B16F10 tumor-bearing mice
Assay type: in vivo, C57BL/6 mice
Conditions: for LNP (tumor/whole body)% ratio of luciferase expression: cationic lipid:DSPC:PEG-DMG:cholesterol 50:10:1.5:38.5 (groups 1-1 to 1-3); for LNP (tumor/whole body)% ratio of luciferase expression / LPP (tumor/whole body)% ratio of luciferase expression: 5 μg luciferase mRNA intratumoral, 6 hours; for LPP (tumor/whole body)% ratio of luciferase expression: cationic lipid:DSPC:PEG-DMG:cholesterol 50:10:1.5:38.5 (groups 1-4 to 1-6)
Description: (§1) Female C57BL/6 mice (Beijing Vital River Laboratory Animal Technology Co., Ltd.) of 6 weeks of age with a weight of around 20 g were used, and each mouse was injected subcutaneously unilaterally with 1×10^6 murine-derived cutaneous melanoma cells, B16F10 cells. When tumors grew to a size of about 450 mm^3, B16F10 tumor-bearing mice were divided into 6 groups (1-1, 1-2, 1-3, 1-4, 1-5, and 1-6 groups, with 3 mice per group), and LPP and LNP solutions (50 μL) containing 5 μg of luciferase mRNA prepared by the prescriptions were respectively taken and administered to the mice by intratumoral injection. 6 hours after the administration, mice were injected intraperitoneally with a 150 mg/kg […] substrate. The bioluminescence was measured in a Xenogen IVIS-200 imaging system 7 minutes after substrate injection to evaluate the expression and distribution of the luciferase mRNA in the mice.
as §1, with “into 8” for “into 6”, “groups (2-1, 2-2, 2-3, 2-4, 2-5, 2-6, 2-7,” for “groups (1-1, 1-2, 1-3, 1-4, 1-5,”, “and 2-8” for “and 1-6”, “and” for “and LPP and LNP”
as §1, with “mm^3, the” for “mm^3, B16F10 tumor-bearing”, “into 8” for “into 6”, “groups (3-1, 3-2, 3-3, 3-4, 3-5, 3-6, 3-7, 3-8” for “groups (1-1, 1-2, 1-3, 1-4, 1-5, and 1-6”, “and” for “and LPP and LNP”

Structure (SMILES) | ratio of luciferase expression of tumor/whole body, rank among cationic lipids (Example 3, versus ALC-0315 and SW-II-127) | LNP (tumor/whole body)% ratio of luciferase expression [%] | LPP (tumor/whole body)% ratio of luciferase expression [%]
CCCCCCCCCOC(=O)CCCCCCCN(CCO)CCCCCCCC(=O)OCCCc1ccc(CCCCC)c(CCCCC)c1 [SW-II-135-1] | highest ratio of luciferase expression of tumor/whole body | 43.6 ± 34.7 | 58.6 ± 36.4
CCCCCCCCC(CCCCCCCC)OC(=O)CCCCCCCN(CCO)CCCCCCC(=O)OCc1ccc(CCCCCC)cc1 [SW-II-127] |  | 15.0 ± 18.5 | 25.7 ± 15.1
CCCCCCCCC(CCCCCC)C(=O)OCCCCCCN(CCCCO)CCCCCCOC(=O)C(CCCCCC)CCCCCCCC (stereo not shown) [ALC-0315, reference compound] |  | 4.9 | 11.2 ± 7.9

From patent US20250387486A1, “LIPID COMPOSITION” (STEMIRNA THERAPEUTICS CO., LTD., priority 2022, published 2025)
